Entries after “also recorded” stand apart in the source; their conditions may differ. Where two headings read alike, the source gives them in different places.

The test system of assay [1] is E. coli BL21 (pET28a-SP-NDM-1). The assay is described as follows: antibacterial activity assay (MIC, broth microdilution; FICI). The format is cell-based. The settings on record: for MIC: Escherichia coli; for FICI: FICI ≤ 0.5 denotes synergy.
The target in assay [2] is T1, NDM-1 (Klebsiella pneumoniae, UniProt C7C422).
T1 construct: made in house; host or cells: E. coli BL21 (DE3)
The assay is described as follows: nitrocefin assay (hydrolysis by purified NDM-1). The format is biochemical. The method, then:
The inhibitory activities of 18 compounds against NDM-1 were tested by nitrocefin assay. The purified NDM-1 was incubated with drugs and nitrocefin, then the absorbance values of OD492nm were determined as the nitrocefin hydrolysis. […]
collected for the subsequent protein purification as described by Liu et.al. […]
further determination of the inhibitory effect of ZINC05683641 on the hydrolysis activities of NDM-1. The initial identifying of NDM-1 inhibitory activities was carried out on the […]
serves as an indicator whose colour changes from yellow to red with increased hydrolysis.
(§1) NDM-1 were incubated with various concentrations of inhibitor (0, 4, 8, 16, 32, 64 μg/mL) in phosphate buffer (pH = 7.4) at room temperature for 20 minutes, and then, 25 μL of nitrocefin was added to the mixture. After 10 minutes of incubation, the samples were read at OD492nm to determine the level of nitrocefin hydrolysis. […]

The target in assay [3] is T2, H250A-NDM-1 (Klebsiella pneumoniae, UniProt C7C422, H250A). Briefly: nitrocefin assay with mutant H250A. The format is biochemical. The settings on record: 4-64 μg/mL. The method, then:
(§2) Subsequently, the inhibitory activity of ZINC05683641 against mutants was tested by the nitrocefin assays. […] The findings indicate that due to the mutation of residues in the binding sites, the binding affinity of ZINC05683641 with NDM-1 decreased, leading to a loss of inhibitory activity. […]
(§3) Site-Directed Mutagenesis
(§4) The recombinant plasmid pET28a-NDM-1 was constructed according to previous reports encoding WT-NDM-1. Plasmids encoding W93A-NDM-1 or H250A-NDM-1 were constructed by using a QuikChange site-directed mutagenesis kit. The template plasmid was the pET28a-NDM-1 plasmid, as noted above.
(§5) Expression and puriﬁcation of WT-PLY and mutants
(§6) Plasmids harboring the coding sequences for WT-NDM-1, W93A-NDM-1, and H250A-NDM-1 were transformed into E. coli BL21 (DE3). The E. coli strain was cultured in 1,000 mL of LB broth supplemented with 50 μg mL–1 kanamycin until the OD 600 nm of the cultures reached 0.6–0.8.
(§7) Protein expression was induced by using 0.3 mM IPTG for 12 h at 16 °C. The cells were harvested and washed once with sterile PBS. […]
as §1

For assay [4], the target named is T3, W93A-NDM-1 (Klebsiella pneumoniae, UniProt C7C422, W93A). The assay is described as follows: nitrocefin assay with mutant W93A. The settings on record: 4-64 μg/mL. The format is biochemical. The method, then:
as §2, §3, §4, §5, §6, §7, §1

Assay [5] concerns the target T3, W93A-NDM-1. The assay is described as follows: fluorescence-quenching assay, W93A. The format is binding. As for the experimental part:
(§8) Furthermore, this competitive inhibition mechanism was verified by fluorescence quenching method. In previous literature, fluorescence quenching method are extensively used in the interaction mechanism research between ligand and protein. The binding constants of NDM-1 with ZINC05683641 were measured by fluorescence quenching method in this research. […] It is believed that the 3D structure of NDM-1-ZINC05683641 complex is reliable by MD simulation, and residues of ILE-35, MET-67, VAL-73, TRP-93, CYS-208, ASN-220 and HIS-250 played crucial roles in the binding of ZINC05683641 to NDM-1. […]
(§9) Fluorescence-quenching assay
(§10) According to Dong et al., Niu et al. and Qiu et al., the binding constants (KA) of WT-NDM-1 and two mutants NDM-1 with inhibitor were measured using the fluorescence-quenching […]
as §3, §4, §5
(§11) Plasmids harboring the coding sequences for WT-NDM-1, W93A-NDM-1, and H250A-NDM-1 were transformed into E. coli BL21 (DE3). […]

For assay [6], the target named is T2, H250A-NDM-1. The assay is described as follows: fluorescence-quenching assay, H250A. The format is binding. As for the experimental part: as §8, §9, §10, §3, §4, §5, §11
Assay [7] deals with T4, WT-NDM-1 (Klebsiella pneumoniae, UniProt C7C422).
T4 construct: made in house; host or cells: E. coli BL21 (DE3)
The assay is described as follows: fluorescence-quenching assay, WT. The format is binding. As for the experimental part: as §8, §9, §10, §3, §4, §5, §11

The target in assay [8] is T1, NDM-1. The settings on record: cited from earlier work.
Setting [9] is: IC50, nitrocefin hydrolysis, OD492nm, mean ± SD, n = 3.
The mark [10] stands for this setting: IC50 (not available; inhibitory activity at 1 mM), initial test at a concentration of 1 mM.

T3 sequence (C7C422 29-270 W93A): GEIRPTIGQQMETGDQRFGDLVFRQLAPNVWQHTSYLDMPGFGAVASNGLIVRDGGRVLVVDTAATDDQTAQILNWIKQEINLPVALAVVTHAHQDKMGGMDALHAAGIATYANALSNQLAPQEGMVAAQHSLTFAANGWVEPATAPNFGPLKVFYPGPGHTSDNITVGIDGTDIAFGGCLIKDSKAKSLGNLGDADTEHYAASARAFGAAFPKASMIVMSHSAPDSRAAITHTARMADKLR
T1 sequence (C7C422 29-270 limits assumed): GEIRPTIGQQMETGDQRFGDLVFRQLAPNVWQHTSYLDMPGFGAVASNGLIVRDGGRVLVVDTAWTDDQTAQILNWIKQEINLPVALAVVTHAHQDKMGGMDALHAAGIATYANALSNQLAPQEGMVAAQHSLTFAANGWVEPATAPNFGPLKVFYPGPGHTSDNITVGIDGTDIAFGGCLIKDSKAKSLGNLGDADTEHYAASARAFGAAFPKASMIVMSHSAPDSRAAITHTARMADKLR
T2 sequence (C7C422 29-270 H250A): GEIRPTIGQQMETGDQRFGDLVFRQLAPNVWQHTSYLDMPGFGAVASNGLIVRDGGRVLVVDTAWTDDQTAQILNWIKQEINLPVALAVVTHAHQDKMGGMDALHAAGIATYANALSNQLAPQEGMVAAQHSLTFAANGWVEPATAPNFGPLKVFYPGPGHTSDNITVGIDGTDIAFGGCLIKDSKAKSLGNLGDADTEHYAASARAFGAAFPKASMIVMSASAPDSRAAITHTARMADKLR
T4 sequence (C7C422 29-270 limits assumed): as the sequence (C7C422 29-270 limits assumed) above

The MIC is the least concentration at which growth counts as inhibited. In the case of `C[C@@H](O)[C@H]1C(=O)N2C(C(=O)O)=C(S[C@@H]3CN[C@H](C(=O)N(C)C)C3)[C@H](C)[C@H]12` [Meropenem], the “MIC of meropenem in combination” value in assay [1] (+64 μg/mL ZINC05683641) and in assay [1] (+128 μg/mL ZINC05683641) was 8 µg/mL throughout. In assay [1], the minimal inhibitory concentration (MIC) worked out at 32 µg/mL. Also, the “reduction of the MICs of meropenem” value in assay [1] (addition of ZINC05683641 at 64 and 128 μg/mL) is reported as “fourfold”. For the same compound, the FICI was found to be 0.375 in assay [1] (meropenem +64 μg/mL ZINC05683641); 0.50 in assay [1] (meropenem +128 μg/mL ZINC05683641); 0.500 in assay [1] (meropenem +128 μg/mL ZINC05683641, listed as meropenem).
For orientation: IC50 means the concentration that gives 50% inhibition. As to `Cc1ccc(N2C(=O)c3ccc(C(=O)c4ccc5c(c4)C(=O)N(c4ccc(C)cc4C)C5=O)cc3C2=O)c(C)c1` [ZINC00639379], the IC50 in assay [2] (setting [9]) was determined as 207 ± 15.5 µM.
Same read-out and setting: the figure for `O=c1oc2cc(OCc3ccc(Cl)c(Cl)c3)ccc2cc1-c1nc2ccccc2s1` [ZINC01799114] is > 300 µM; for `Cc1ccc(N2C(=O)c3ccc(C(=O)c4ccc5c(c4)C(=O)N(c4ccc(C)cc4C)C5=O)cc3C2=O)c(C)c1` [ZINC02079077] it is 108 ± 5.64 µM; for `Cc1ccc(-c2cc(C(=O)Oc3ccc([N+](=O)[O-])cc3)c3cc(C)ccc3n2)cc1` [ZINC02577071] it is > 300 µM.
Same read-out and setting: to `Cc1ccc(S(=O)(=O)ON2C(=O)c3cccc4cccc(c34)C2=O)cc1` [ZINC02938448] belongs > 300 µM; to `O=C1c2cccc3cccc(c23)C(=O)N1OS(=O)(=O)c1ccc(Cl)cc1` [ZINC02953923], > 300 µM; to `Cc1ccc(S(=O)(=O)Nc2cccc3cccc(NS(=O)(=O)c4ccc(C)cc4)c23)cc1` [ZINC03198432], > 300 µM.
On to `O=C(N[C@@H](Cc1ccc2ccccc2c1)C(=O)O)OCC1c2ccccc2-c2ccccc21` [ZINC04218138], for which, in assay [2] (setting [10]), the half-maximal inhibitory concentration (IC50) is > 1000 µM.
A word on the Kd: it is the equilibrium constant for the complex coming apart. As a reminder, the inhibition is the percentage by which the read-out fell short of the control. For `COc1ccc2c3c(cccc13)C(=O)N(OS(=O)(=O)c1ccc(C)cc1)C2=O` [ZINC05683641], the “inhibition of H250A hydrolysis activity” value in assay [3] was “almost no inhibition; also recorded: did not lead to inhibitory effects”. For the same compound, the “inhibition of W93A hydrolysis activity” value in assay [4] was “almost no inhibition; also recorded: did not lead to inhibitory effects”. The equilibrium dissociation constant (Kd) in assay [5] is 3.28 µM; in assay [6], 4.65 µM; in assay [7] it was 2.4 µM. The “binding constant KA” value is recorded as 3.05 ± 0.83 1 × 10^5 L mol^−1 in assay [5] (W93A, fluorescence spectroscopy quenching, mean ± SD, n = 3) and 2.15 ± 0.88 1 × 10^5 L mol^−1 in assay [6] (H250A, fluorescence spectroscopy quenching, mean ± SD, n = 3). In assay [2] (setting [9]), it took 13.6 ± 0.52 µM to reach half-maximal inhibition (IC50). Besides, in assay [2] (final concentrations of 4, 8, 16, 32 and 64 μg/mL), the “hydrolysis activity of nitrocefin by WT-NDM-1” value is “reduced”. The inhibition at 16 µM in assay [2] (read-out: inhibition rate) is > 50%. The minimum inhibitory concentration (MIC) in assay [1] was > 512 µg/mL. Besides, in assay [1] (inhibitor alone, 512 μg/mL), the “inhibition of cell growth” value is on record as “did not inhibit cell growth”.
`C[C@H]1CCc2cc(F)cc3c(=O)c(C(=O)NCc4ccccc4Cl)c(O)n1c23` [ZINC06166781]: the IC50 in assay [2] (setting [9]) is > 300 µM.
On to `Cc1ccc(-c2cc(C(F)(F)F)c3c(N)c(C(=O)c4ccccc4)sc3n2)cc1` [ZINC06421319], for which the 50% inhibitory concentration (IC50) in assay [2] (setting [10]) is > 1000 µM.
As to `Cc1ccc(S(=O)(=O)N[C@@H](C(=O)Oc2ccc3c4c(c(=O)oc3c2)CCCC4)c2ccccc2)cc1` [ZINC11865709], the IC50 in assay [2] (setting [9]) was > 300 µM.
Same read-out and setting: the figure for `O=[N+]([O-])c1cccc(S(=O)(=O)N2CN(c3ccc4ccccc4c3)c3nc4ccccc4nc32)c1` [ZINC12524283] is > 300 µM.
The same measure, in the same setting: to `O=C1C(=Cc2cccc(Cl)c2)CN(Cc2ccccc2)CC1=Cc1cccc(Cl)c1` [ZINC20115378] belongs > 300 µM.
As for `Cc1ccccc1S(=O)(=O)ON1C(=O)c2cccc3cc(S(=O)(=O)N(C)C)cc(c23)C1=O` [ZINC25558269], in assay [2] (setting [10]), the half-maximal inhibitory concentration (IC50) was > 1000 µM.
Consider `O=C1c2cccc3c(Br)ccc(c23)C(=O)N1OS(=O)(=O)c1ccc(Cl)cc1` [ZINC25558273], for which, in assay [2] (setting [9]), the IC50 is > 300 µM.
With `Cc1ccc(C2=NN3[C@@H](C(=O)c4ccc(-c5ccccc5)cc4)Oc4ccc(Cl)cc4[C@H]3C2)cc1` [ZINC25558691], the IC50 in assay [2] (setting [10]) is > 1000 µM.
On to `N[C@H](CN[C@H](CN[C@@H](CC(=O)O)C(=O)O)C(=O)O)C(=O)O` [aspergillomarasmine A], for which, in assay [8], the IC50 is 4 µM.

Source of the values: article PMC7279046, “Discovery of the Novel Inhibitor Against New Delhi Metallo-β-Lactamase Based on Virtual Screening and Molecular Modelling” (International Journal of Molecular Sciences, 2020).
